Assay results from patent publication US20240067632A1, “WEE1 Degrading Compounds and Uses Thereof” (Bristol-Myers Squibb Company, priority 2022, published 2024).

Legend:
MKN45 cells = assay: MKN45 cell proliferation assay (Cell-Titer-Glo, 120 h); format: cell-based; settings: for EC50: Homo sapiens, MKN-45, 120 h, Cell-Titer-Glo, growth inhibition, read-out: MKN45 Cell Prolif. 120 hr (EC50); for MKN45 Cell Prolif. 120 hr (Ymin-Obs): minimal percent of DMSO control observed in the concentrations tested
In short: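 Growth inhibition was read as blank-corrected Cell-Titer-Glo luminescence expressed as percent DMSO control after 120 h at 37 C, 400 cells/well. Compounds tested in triplicate as 10-point half-log series from 1 or 10 uM, 0.1% DMSO; four-parameter fit gave EC50, and lowest observed percent control was reported as Ymin-obs.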

WEE1 = target: T1, WEE1 (Homo sapiens, UniProt P30291+Q96SW2); assay: WEE1-ePL degradation assay (LentiX-WEE1-ePL-GSPT1-ND cells, InCELL Hunter luminescence, 4 h); format: cell-based; settings: 293T-LentiX WEE1-ePL cells; for 293T-LentiX WEE1-ePL Degradation 4 hr (Ymin): lower limit of the fit (0 = luciferase inhibitor, Ymax = DMSO control); for DC50: read-out: 293T-LentiX WEE1-ePL Degradation 4 hr (EC50)
T1 construct: C-terminal ePL-tagged (DiscoverX, Fremont, CA) full-length WEE1 expression construct; expressed in transfected cells; host or cells: LentiX-HEK293T (Invitrogen), lentiviral transduction; co-expressing GSPT1-GN (G576N, lacking the first 158 amino acids)
In short: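 HEK293T cells stably expressing C-terminal ePL-tagged full-length WEE1, 2500 cells/well, treated 4 h at 37° C with a 10-point 3-fold series from 1 or 10 uM. Remaining WEE1-ePL read by InCELL Hunter luminescence after 30 min. EC50 came from a four-parameter logistic fit, with Ymax set from DMSO control.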

## O=C1CCC(N2Cc3cc(O[C@H]4CCN(Cc5ccc6nc(N7C[C@H]8COC[C@H]8C7)ncc6c5)C4)ccc3C2=O)C(=O)N1 (stereo partly drawn) [3-(5-{[(3S)-1-({2-[(3aR,6aS)-hexahydro-1H-furo[3,4-c]pyrrol-5-yl]quinazolin-6-yl}methyl)pyrrolidin-3-yl]oxy}-1-oxo-2,3-dihydro-1H-isoindol-2-yl)piperidine-2,6-dione]
MKN45 cells
  EC50: 13 nM
  MKN45 Cell Prolif. 120 hr (Ymin-Obs): 12.43
WEE1
  293T-LentiX WEE1-ePL Degradation 4 hr (Ymin): 38
  DC50: 14 nM

## O=C1CCC(N2Cc3cc(O[C@H]4CCN(Cc5ccc6nc(N7C[C@H]8COC[C@H]8C7)ccc6c5)C4)ccc3C2=O)C(=O)N1 (stereo partly drawn) [3-(5-{[(3S)-1-({2-[(3aR,6aS)-hexahydro-1H-furo[3,4-c]pyrrol-5-yl]quinolin-6-yl}methyl)pyrrolidin-3-yl]oxy}-1-oxo-2,3-dihydro-1H-isoindol-2-yl)piperidine-2,6-dione]
MKN45 cells
  EC50: 6.4 nM
  MKN45 Cell Prolif. 120 hr (Ymin-Obs): 14.73
WEE1
  293T-LentiX WEE1-ePL Degradation 4 hr (Ymin): 39
  DC50: 3.61 nM

## CC1(C)C[C@H](c2ncc3cc(CN4CC[C@H](Oc5ccc6c(c5)CN(C5CCC(=O)NC5=O)C6=O)C4)ccc3n2)CCO1 (stereo partly drawn) [3-(5-{[(3S)-1-({2-[(4R)-2,2-dimethyloxan-4-yl]quinazolin-6-yl}methyl)pyrrolidin-3-yl]oxy}-1-oxo-2,3-dihydro-1H-isoindol-2-yl)piperidine-2,6-dione]
MKN45 cells
  EC50: 19.7 nM
  MKN45 Cell Prolif. 120 hr (Ymin-Obs): 9.866
WEE1
  293T-LentiX WEE1-ePL Degradation 4 hr (Ymin): 27
  DC50: 65 nM

## CC1(C)COCC[C@H]1c1ccc2cc(CN3CC[C@H](Oc4ccc5c(c4)CN(C4CCC(=O)NC4=O)C5=O)C3)ccc2n1 (stereo partly drawn) [3-(5-{[(3S)-1-({2-[(4R)-3,3-dimethyloxan-4-yl]quinolin-6-yl}methyl)pyrrolidin-3-yl]oxy}-1-oxo-2,3-dihydro-1H-isoindol-2-yl)piperidine-2,6-dione]
MKN45 cells
  EC50: 8.03 nM
  MKN45 Cell Prolif. 120 hr (Ymin-Obs): 11.03
WEE1
  293T-LentiX WEE1-ePL Degradation 4 hr (Ymin): 41
  DC50: 3.31 nM

## O=C1CCC(N2Cc3cc(O[C@H]4CCN(Cc5ccc6nc(N7CC[C@]78CCOC8)ncc6c5)C4)ccc3C2=O)C(=O)N1 (stereo partly drawn) [3-(5-{[(3S)-1-({2-[(4R)-6-oxa-1-azaspiro[3.4]octan-1-yl]quinazolin-6-yl}methyl)pyrrolidin-3-yl]oxy}-1-oxo-2,3-dihydro-1H-isoindol-2-yl)piperidine-2,6-dione]
MKN45 cells
  EC50: 16.7 nM
  MKN45 Cell Prolif. 120 hr (Ymin-Obs): 13.42
WEE1
  293T-LentiX WEE1-ePL Degradation 4 hr (Ymin): 35.43
  DC50: 19.5 nM

## O=C1CCC(N2Cc3cc(O[C@H]4CCN(Cc5ccc6nc(N7CC[C@]78CCOC8)ccc6c5)C4)ccc3C2=O)C(=O)N1 (stereo partly drawn) [3-(5-{[(3S)-1-({2-[(4R)-6-oxa-1-azaspiro[3.4]octan-1-yl]quinolin-6-yl}methyl)pyrrolidin-3-yl]oxy}-1-oxo-2,3-dihydro-1H-isoindol-2-yl)piperidine-2,6-dione]
MKN45 cells
  EC50: 5.4 nM
  MKN45 Cell Prolif. 120 hr (Ymin-Obs): 7.715
WEE1
  293T-LentiX WEE1-ePL Degradation 4 hr (Ymin): 42
  DC50: 5.38 nM

## CC1(C)C[C@@H](c2ncc3cc(CN4CC[C@H](Oc5ccc6c(c5)CN(C5CCC(=O)NC5=O)C6=O)C4)ccc3n2)CCO1 (stereo partly drawn) [3-(5-{[(3S)-1-({2-[(4S)-2,2-dimethyloxan-4-yl]quinazolin-6-yl}methyl)pyrrolidin-3-yl]oxy}-1-oxo-2,3-dihydro-1H-isoindol-2-yl)piperidine-2,6-dione]
MKN45 cells
  EC50: 9.52 nM
  MKN45 Cell Prolif. 120 hr (Ymin-Obs): 8.354
WEE1
  293T-LentiX WEE1-ePL Degradation 4 hr (Ymin): 31
  DC50: 43.4 nM

## CC1(C)COCC[C@@H]1c1ccc2cc(CN3CC[C@H](Oc4ccc5c(c4)CN(C4CCC(=O)NC4=O)C5=O)C3)ccc2n1 (stereo partly drawn) [3-(5-{[(3S)-1-({2-[(4S)-3,3-dimethyloxan-4-yl]quinolin-6-yl}methyl)pyrrolidin-3-yl]oxy}-1-oxo-2,3-dihydro-1H-isoindol-2-yl)piperidine-2,6-dione]
MKN45 cells
  EC50: 1.7 nM
  MKN45 Cell Prolif. 120 hr (Ymin-Obs): 6.945
WEE1
  293T-LentiX WEE1-ePL Degradation 4 hr (Ymin): 34
  DC50: 1.78 nM

## O=C1CCC(N2Cc3cc(O[C@H]4CCN(Cc5ccc6nc(N7CC[C@@]78CCOC8)ncc6c5)C4)ccc3C2=O)C(=O)N1 (stereo partly drawn) [3-(5-{[(3S)-1-({2-[(4S)-6-oxa-1-azaspiro[3.4]octan-1-yl]quinazolin-6-yl}methyl)pyrrolidin-3-yl]oxy}-1-oxo-2,3-dihydro-1H-isoindol-2-yl)piperidine-2,6-dione]
MKN45 cells
  EC50: 13.3 nM
  MKN45 Cell Prolif. 120 hr (Ymin-Obs): 12.16
WEE1
  293T-LentiX WEE1-ePL Degradation 4 hr (Ymin): 34.39
  DC50: 14.6 nM

## O=C1CCC(N2Cc3cc(O[C@H]4CCN(Cc5ccc6nc(N7CC[C@@]78CCOC8)ccc6c5)C4)ccc3C2=O)C(=O)N1 (stereo partly drawn) [3-(5-{[(3S)-1-({2-[(4S)-6-oxa-1-azaspiro[3.4]octan-1-yl]quinolin-6-yl}methyl)pyrrolidin-3-yl]oxy}-1-oxo-2,3-dihydro-1H-isoindol-2-yl)piperidine-2,6-dione]
MKN45 cells
  EC50: 6.53 nM
  MKN45 Cell Prolif. 120 hr (Ymin-Obs): 7.225
WEE1
  293T-LentiX WEE1-ePL Degradation 4 hr (Ymin): 40
  DC50: 6.07 nM

## O=C1CCC(N2Cc3cc(O[C@H]4CCN(Cc5ccc6nc(N7CCC[C@]78CCOC8)ncc6c5)C4)ccc3C2=O)C(=O)N1 (stereo partly drawn) [3-(5-{[(3S)-1-({2-[(5R)-7-oxa-1-azaspiro[4.4]nonan-1-yl]quinazolin-6-yl}methyl)pyrrolidin-3-yl]oxy}-1-oxo-2,3-dihydro-1H-isoindol-2-yl)piperidine-2,6-dione]
MKN45 cells
  EC50: 6.61 nM
  MKN45 Cell Prolif. 120 hr (Ymin-Obs): 6.57
WEE1
  293T-LentiX WEE1-ePL Degradation 4 hr (Ymin): 32.5
  DC50: 12.3 nM

## O=C1CCC(N2Cc3cc(O[C@H]4CCN(Cc5ccc6nc(N7CCC[C@]78CCOC8)ccc6c5)C4)ccc3C2=O)C(=O)N1 (stereo partly drawn) [3-(5-{[(3S)-1-({2-[(5R)-7-oxa-1-azaspiro[4.4]nonan-1-yl]quinolin-6-yl}methyl)pyrrolidin-3-yl]oxy}-1-oxo-2,3-dihydro-1H-isoindol-2-yl)piperidine-2,6-dione]
MKN45 cells
  EC50: 10.9 nM
  MKN45 Cell Prolif. 120 hr (Ymin-Obs): 17.85
WEE1
  293T-LentiX WEE1-ePL Degradation 4 hr (Ymin): 46
  DC50: 6.81 nM

## O=C1CCC(N2Cc3cc(O[C@H]4CCN(Cc5ccc6nc(N7CCC[C@@]78CCOC8)ncc6c5)C4)ccc3C2=O)C(=O)N1 (stereo partly drawn) [3-(5-{[(3S)-1-({2-[(5S)-7-oxa-1-azaspiro[4.4]nonan-1-yl]quinazolin-6-yl}methyl)pyrrolidin-3-yl]oxy}-1-oxo-2,3-dihydro-1H-isoindol-2-yl)piperidine-2,6-dione]
MKN45 cells
  EC50: 9.38 nM
  MKN45 Cell Prolif. 120 hr (Ymin-Obs): 9.64
WEE1
  293T-LentiX WEE1-ePL Degradation 4 hr (Ymin): 34.08
  DC50: 12.6 nM

## O=C1CCC(N2Cc3cc(O[C@H]4CCN(Cc5ccc6nc(N7CCC[C@@]78CCOC8)ccc6c5)C4)ccc3C2=O)C(=O)N1 (stereo partly drawn) [3-(5-{[(3S)-1-({2-[(5S)-7-oxa-1-azaspiro[4.4]nonan-1-yl]quinolin-6-yl}methyl)pyrrolidin-3-yl]oxy}-1-oxo-2,3-dihydro-1H-isoindol-2-yl)piperidine-2,6-dione]
MKN45 cells
  EC50: 10.1 nM
  MKN45 Cell Prolif. 120 hr (Ymin-Obs): 26.44
WEE1
  293T-LentiX WEE1-ePL Degradation 4 hr (Ymin): 47
  DC50: 3.66 nM

## O=C1CCC(N2Cc3cc(O[C@H]4CCN(Cc5ccc6nc(NC7CCOCC7)ccc6c5)C4)ccc3C2=O)C(=O)N1 (stereo partly drawn) [3-(5-{[(3S)-1-({2-[(oxan-4-yl)amino]quinolin-6-yl}methyl)pyrrolidin-3-yl]oxy}-1-oxo-2,3-dihydro-1H-isoindol-2-yl)piperidine-2,6-dione]
MKN45 cells
  EC50: 4.27 nM
  MKN45 Cell Prolif. 120 hr (Ymin-Obs): 7.78
WEE1
  293T-LentiX WEE1-ePL Degradation 4 hr (Ymin): 37
  DC50: 10.6 nM

## O=C1CCC(N2Cc3cc(O[C@H]4CCN(Cc5ccc6nc(COC7CCOCC7)ccc6c5)C4)ccc3C2=O)C(=O)N1 (stereo partly drawn) [3-(5-{[(3S)-1-({2-[(oxan-4-yloxy)methyl]quinolin-6-yl}methyl)pyrrolidin-3-yl]oxy}-1-oxo-2,3-dihydro-1H-isoindol-2-yl)piperidine-2,6-dione]
MKN45 cells
  EC50: 2.19 nM
  MKN45 Cell Prolif. 120 hr (Ymin-Obs): 7.295
WEE1
  293T-LentiX WEE1-ePL Degradation 4 hr (Ymin): 33
  DC50: 4.73 nM

## O=C1CCC(N2Cc3cc(O[C@H]4CCN(Cc5ccc6nc(COC7COC7)ccc6c5)C4)ccc3C2=O)C(=O)N1 (stereo partly drawn) [3-(5-{[(3S)-1-({2-[(oxetan-3-yloxy)methyl]quinolin-6-yl}methyl)pyrrolidin-3-yl]oxy}-1-oxo-2,3-dihydro-1H-isoindol-2-yl)piperidine-2,6-dione]
MKN45 cells
  EC50: 5.37 nM
  MKN45 Cell Prolif. 120 hr (Ymin-Obs): 9.252
WEE1
  293T-LentiX WEE1-ePL Degradation 4 hr (Ymin): 23.84
  DC50: 122 nM

## CN(c1ccc2cc(CN3CC[C@H](Oc4ccc5c(c4)CN(C4CCC(=O)NC4=O)C5=O)C3)ccc2n1)C1CCOCC1 (stereo partly drawn) [3-(5-{[(3S)-1-({2-[methyl(oxan-4-yl)amino]quinolin-6-yl}methyl)pyrrolidin-3-yl]oxy}1-oxo-2,3-dihydro-1H-isoindol-2-yl)piperidine-2,6-dione]
MKN45 cells
  EC50: 3.5 nM
  MKN45 Cell Prolif. 120 hr (Ymin-Obs): 8.45
WEE1
  293T-LentiX WEE1-ePL Degradation 4 hr (Ymin): 32
  DC50: 1.82 nM

## O=C1CCC(N2Cc3cc(O[C@H]4CCN(Cc5cnc6c(c5)CCO6)C4)ccc3C2=O)C(=O)N1 (stereo partly drawn) [3-(5-{[(3S)-1-({2H,3H-furo[2,3-b]pyridin-5-yl}methyl)pyrrolidin-3-yl]oxy}-1-oxo-2,3-dihydro-1H-isoindol-2-yl)piperidine-2,6-dione]
MKN45 cells
  EC50: 2040 nM
  MKN45 Cell Prolif. 120 hr (Ymin-Obs): 40.58
WEE1
  293T-LentiX WEE1-ePL Degradation 4 hr (Ymin): 42
  DC50: 60.1 nM
